Molecules are shown by their SMILES.

This test concerns HEK293 cells. The test is described as follows: Preliminary screening as mRNA vectors, EGFP mRNA transfection of HEK293 cells. Particulars: EGFP mRNA 50 ng per well, 96-well plates; percentage of GFP fluorescent cells relative to total number of cells (Hoechst). The test is classed as cell-based. Put shortly:
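Screening format: EGFP mRNA transfection (50 ng/well) into HEK293 in 10% FBS-supplemented DMEM. Percent green fluorescent cells, normalised to Hoechst nuclear count, gave the value; Lipofectamine2000 was the reference transfectant.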
With `CCCCCCCCCCCCCCCCCCSc1nc(NCCCCCCCCCCCCCCCC)nc(NCCN(CC)CC)n1` [Compound D7S18N16], the “Absolute mRNA transfection efficiency in HEK293 cells” value (shortened to “Absolute mRNA transfection efficiency”) came out at 0.3%. The value for `CCCCCCCCCCCCCCCCCCNc1nc(NCCN(CC)CC)nc(SCCCCCCCCCCCCCCCCCC)n1` [Compound D7S18N18] was 0.0%. Under `CCCCCCNc1nc(NCCCN2CCOCC2)nc(SCCCCCC)n1` [Compound D8S6N6] stands 0.0%. The value for `CCCCCCCNc1nc(NCCCN2CCOCC2)nc(SCCCCCC)n1` [Compound D8S6N7] was 0.4%; that for `CCCCCCCCNc1nc(NCCCN2CCOCC2)nc(SCCCCCC)n1` [Compound D8S6N8] was 0.2%.

Regarding `CCCCCCCCCNc1nc(NCCCN2CCOCC2)nc(SCCCCCC)n1` [Compound D8S6N9], the “Absolute mRNA transfection efficiency” value was 1.2%.

On to `CCCCCCCCCCCNc1nc(NCCCN2CCOCC2)nc(SCCCCCC)n1` [Compound D8S6N11], for which the “Absolute mRNA transfection efficiency” value worked out at 1.1%. Under `CCCCCCCCCCCCNc1nc(NCCCN2CCOCC2)nc(SCCCCCC)n1` [Compound D8S6N12] stands 2.0%. Under `CCCCCCCCCCCCCNc1nc(NCCCN2CCOCC2)nc(SCCCCCC)n1` [Compound D8S6N13] stands 0.0%. The value for `CCCCCCCCCCCCCCCNc1nc(NCCCN2CCOCC2)nc(SCCCCCC)n1` [Compound D8S6N15] was 0.1%; that for `CCCCCCCCCCCCCCCCNc1nc(NCCCN2CCOCC2)nc(SCCCCCC)n1` [Compound D8S6N16] was 0.6%.

As to `CCCCCCCCCCCCCCCCCCNc1nc(NCCCN2CCOCC2)nc(SCCCCCC)n1` [Compound D8S6N18], the “Absolute mRNA transfection efficiency” value is 0.7%.

As to `CCCCCCSc1nc(NCCCN2CCOCC2)nc(SCCCCCC)n1` [Compound D8S6S6], the “Absolute mRNA transfection efficiency” value is reported as 0.0%. The value for `CCCCCCCSc1nc(NCCCN2CCOCC2)nc(SCCCCCC)n1` [Compound D8S6S7] was 1.5%; that for `CCCCCCCCSc1nc(NCCCN2CCOCC2)nc(SCCCCCC)n1` [Compound D8S6S8] was 0.2%. The value for `CCCCCCCCCSc1nc(NCCCN2CCOCC2)nc(SCCCCCC)n1` [Compound D8S6S9] was 5.0%. The value for `CCCCCCCCCCSc1nc(NCCCN2CCOCC2)nc(SCCCCCC)n1` [Compound D8S6S10] was 4.2%; that for `CCCCCCCCCCCSc1nc(NCCCN2CCOCC2)nc(SCCCCCC)n1` [Compound D8S6S11] was 1.5%; that for `CCCCCCCCCCCCSc1nc(NCCCN2CCOCC2)nc(SCCCCCC)n1` [Compound D8S6S12] was 11.1%. `CCCCCCCCCCCCCCSc1nc(NCCCN2CCOCC2)nc(SCCCCCC)n1` [Compound D8S6S14]: the “Absolute mRNA transfection efficiency” value came to 6.8%. The value for `CCCCCCCCCCCCCCCSc1nc(NCCCN2CCOCC2)nc(SCCCCCC)n1` [Compound D8S6S15] was 2.8%; that for `CCCCCCCCCCCCCCCCSc1nc(NCCCN2CCOCC2)nc(SCCCCCC)n1` [Compound D8S6S16] was 43.1%. As for `CCCCCCCCCCCCCCCCCCSc1nc(NCCCN2CCOCC2)nc(SCCCCCC)n1` [Compound D8S6S18], the “Absolute mRNA transfection efficiency” value is on record as 12.6%. The value for `CCCCCCCSc1nc(NCCCCCC)nc(NCCCN2CCOCC2)n1` [Compound D8S7N6] was 1.8%. `CCCCCCCNc1nc(NCCCN2CCOCC2)nc(SCCCCCCC)n1` [Compound D8S7N7]: the “Absolute mRNA transfection efficiency” value is 1.4%. The value for `CCCCCCCCNc1nc(NCCCN2CCOCC2)nc(SCCCCCCC)n1` [Compound D8S7N8] was 1.8%; that for `CCCCCCCCCNc1nc(NCCCN2CCOCC2)nc(SCCCCCCC)n1` [Compound D8S7N9] was 10.6%; that for `CCCCCCCCCCCNc1nc(NCCCN2CCOCC2)nc(SCCCCCCC)n1` [Compound D8S7N11] was 20.1%. Under `CCCCCCCCCCCCNc1nc(NCCCN2CCOCC2)nc(SCCCCCCC)n1` [Compound D8S7N12] stands 2.3%; under `CCCCCCCCCCCCCNc1nc(NCCCN2CCOCC2)nc(SCCCCCCC)n1` [Compound D8S7N13], 5.8%.

In the case of `CCCCCCCCCCCCCCCNc1nc(NCCCN2CCOCC2)nc(SCCCCCCC)n1` [Compound D8S7N15], the “Absolute mRNA transfection efficiency” value is 2.8%. Regarding `CCCCCCCCCCCCCCCCNc1nc(NCCCN2CCOCC2)nc(SCCCCCCC)n1` [Compound D8S7N16], the “Absolute mRNA transfection efficiency” value was 1.2%. The value for `CCCCCCCCCCCCCCCCCCNc1nc(NCCCN2CCOCC2)nc(SCCCCCCC)n1` [Compound D8S7N18] was 3.0%; that for `CCCCCCCSc1nc(NCCCN2CCOCC2)nc(SCCCCCCC)n1` [Compound D8S7S7] was 5.0%; that for `CCCCCCCCSc1nc(NCCCN2CCOCC2)nc(SCCCCCCC)n1` [Compound D8S7S8] was 5.0%. The value for `CCCCCCCCCSc1nc(NCCCN2CCOCC2)nc(SCCCCCCC)n1` [Compound D8S7S9] was 18.6%. The value for `CCCCCCCCCCSc1nc(NCCCN2CCOCC2)nc(SCCCCCCC)n1` [Compound D8S7S10] was 11.4%.

`CCCCCCCCCCCSc1nc(NCCCN2CCOCC2)nc(SCCCCCCC)n1` [Compound D8S7S11]: the “Absolute mRNA transfection efficiency” value amounted to 23.1%. The value for `CCCCCCCCCCCCSc1nc(NCCCN2CCOCC2)nc(SCCCCCCC)n1` [Compound D8S7S12] was 20.7%; that for `CCCCCCCCCCCCCCSc1nc(NCCCN2CCOCC2)nc(SCCCCCCC)n1` [Compound D8S7S14] was 21.2%; that for `CCCCCCCCCCCCCCCSc1nc(NCCCN2CCOCC2)nc(SCCCCCCC)n1` [Compound D8S7S15] was 25.2%. The value for `CCCCCCCCCCCCCCCCSc1nc(NCCCN2CCOCC2)nc(SCCCCCCC)n1` [Compound D8S7S16] was 22.7%; that for `CCCCCCCCCCCCCCCCCCSc1nc(NCCCN2CCOCC2)nc(SCCCCCCC)n1` [Compound D8S7S18] was 26.7%; that for `CCCCCCCCSc1nc(NCCCCCC)nc(NCCCN2CCOCC2)n1` [Compound D8S8N6] was 1.0%. As to `CCCCCCCCSc1nc(NCCCCCCC)nc(NCCCN2CCOCC2)n1` [Compound D8S8N7], the “Absolute mRNA transfection efficiency” value turned out to be 0.1%.

For `CCCCCCCCNc1nc(NCCCN2CCOCC2)nc(SCCCCCCCC)n1` [Compound D8S8N8], the “Absolute mRNA transfection efficiency” value worked out at 1.3%. The value for `CCCCCCCCCNc1nc(NCCCN2CCOCC2)nc(SCCCCCCCC)n1` [Compound D8S8N9] was 3.5%; that for `CCCCCCCCCCCNc1nc(NCCCN2CCOCC2)nc(SCCCCCCCC)n1` [Compound D8S8N11] was 7.9%. On to `CCCCCCCCCCCCNc1nc(NCCCN2CCOCC2)nc(SCCCCCCCC)n1` [Compound D8S8N12], for which the “Absolute mRNA transfection efficiency” value is listed as 3.8%. The value for `CCCCCCCCCCCCCNc1nc(NCCCN2CCOCC2)nc(SCCCCCCCC)n1` [Compound D8S8N13] was 1.5%; that for `CCCCCCCCCCCCCCCNc1nc(NCCCN2CCOCC2)nc(SCCCCCCCC)n1` [Compound D8S8N15] was 4.6%; that for `CCCCCCCCCCCCCCCCNc1nc(NCCCN2CCOCC2)nc(SCCCCCCCC)n1` [Compound D8S8N16] was 4.9%. Take `CCCCCCCCCCCCCCCCCCNc1nc(NCCCN2CCOCC2)nc(SCCCCCCCC)n1` [Compound D8S8N18]: the “Absolute mRNA transfection efficiency” value came to 1.2%. Take `CCCCCCCCSc1nc(NCCCN2CCOCC2)nc(SCCCCCCCC)n1` [Compound D8S8S8]: the “Absolute mRNA transfection efficiency” value was found to be 48.2%.

For `CCCCCCCCCSc1nc(NCCCN2CCOCC2)nc(SCCCCCCCC)n1` [Compound D8S8S9], the “Absolute mRNA transfection efficiency” value worked out at 47.2%.

Consider `CCCCCCCCCCSc1nc(NCCCN2CCOCC2)nc(SCCCCCCCC)n1` [Compound D8S8S10], for which the “Absolute mRNA transfection efficiency” value turned out to be 40.9%. The value for `CCCCCCCCCCCSc1nc(NCCCN2CCOCC2)nc(SCCCCCCCC)n1` [Compound D8S8S11] was 22.2%; that for `CCCCCCCCCCCCSc1nc(NCCCN2CCOCC2)nc(SCCCCCCCC)n1` [Compound D8S8S12] was 67.9%.

For `CCCCCCCCCSc1nc(NCCCCCC)nc(NCCCN2CCOCC2)n1` [Compound D8S9N6], the “Absolute mRNA transfection efficiency” value is recorded as 0.6%. Under `CCCCCCCCCSc1nc(NCCCCCCC)nc(NCCCN2CCOCC2)n1` [Compound D8S9N7] stands 2.2%. Take `CCCCCCCCCSc1nc(NCCCCCCCC)nc(NCCCN2CCOCC2)n1` [Compound D8S9N8]: the “Absolute mRNA transfection efficiency” value worked out at 5.7%. Under `CCCCCCCCCNc1nc(NCCCN2CCOCC2)nc(SCCCCCCCCC)n1` [Compound D8S9N9] stands 14.0%. The value for `CCCCCCCCCCCNc1nc(NCCCN2CCOCC2)nc(SCCCCCCCCC)n1` [Compound D8S9N11] was 23.5%; that for `CCCCCCCCCCCCNc1nc(NCCCN2CCOCC2)nc(SCCCCCCCCC)n1` [Compound D8S9N12] was 11.2%.

These data come from US20230123334A1, “AMINO LIPID COMPOUND, PREPARATION METHOD THEREFOR, AND APPLICATION THEREOF” (SHENZHEN SHENXIN BIOTECHNOLOGY CO., LTD., priority 2020, published 2023).
